In brackets after ≈: the same amount, converted by molar mass. Like-named read-outs stand apart in the source and are kept apart here.
Tests used:
Assay type in all cases: cell-based
S. aureus ATCC 43300 = assay: In vitro antibacterial activity assay (MIC, broth dilution); conditions: Staphylococcus aureus
Excerpt: (§1) The method used to indicate the activity of the compounds in this example is to record the minimum inhibitory concentration (MIC) of the compounds against bacteria. The specific experimental method is as follows:
(§2) 1. The bacterial liquid cultured from a single colony was taken, and diluted into autoclaved CAMHB broth in a ratio of 1:1000, and mixed well.
(§3) 2. The prepared drug solution was filtered through a sterile 0.22 µm syringe filter and placed in a sterile EP tube for later use.
(§4) 3. A 96-well plate was taken, and 20 µL of drug solution ([…]) was added to each well in the first column of the 96-well plate. Then, 180 µL of diluted bacterial liquid was added and mixed well (Perform 3 replicate rows for each drug).
(§5) The same process was performed for the hydrochloride drug.
(§6) 4. 100 μL of diluted bacterial liquid was added to each well in the remaining 11 columns of the 96-well plate. Drugs are the same as above.
(§7) 5. Serial dilution: 100 μL of liquid was taken from the first column to the second column, mixed well, then 100 μL of liquid was taken from the second column to the third column, mixed well, and so on, sequentially diluting down to the last column (column 12). After mixing column 12 well, 100 μL of liquid thereof was discarded. The drug concentration in each well was decreased by two-fold serially (the concentration in the first well is 40 μg/mL).
(§8) 6. Blank CAMHB broth without added bacteria liquid was added to 3 blank wells in the 96-well plate, as negative control.
(§9) 7. The diluted bacterial liquid was added to 3 blank wells in the 96-well plate, as positive control.
(§10) 8. Incubated at 37° C. for 16 hours.
(§11) 9. Results reading: the minimum inhibitory concentration is the minimum drug concentration at which no bacterial growth is visible to the naked eye and without turbidity.

E. coli ATCC 25922 = assay: as above; conditions: Escherichia coli
Excerpt: as §1, §2, §3, §4, §5, §6, §7, §8, §9, §10, §11

Hela = assay: In vitro anticancer activity test (MTT cell proliferation); conditions: Homo sapiens, read-out: Hela Average inhibition rate %
Description: The anticancer activity of the compounds was tested using an in vitro cancer cell tests. The specific test method is as follows:
1. Cell recovery and culture method: the cryovial was taken out from the liquid nitrogen container firstly, soaked directly in 37° C. warm water, and shaked from time to time to let it thaw as soon as possible. Then, the cryovial was transferred to a clean bench, and the lid was open. The cell suspension was taken into a centrifuge tube using a rubber-tipped dropper and more than 10 times the culture medium was added, mixed well, and centrifuged at 50 g for 5 minutes. Then, the supernatant was discarded, complete culture medium containing 10% fetal bovine serum was added to resuspend the cells, the cells was counted, the cell density was adjusted, and then inoculated into a culture bottle. The culture bottle was placed in a cell culture incubator at 5% CO2 and 37° C. The complete culture medium was replaced once the next day and the culture was continued.
2. Cell passaging method: adherent cells in the logarithmic growth phase were placed in a clean bench, the original culture medium was discarded, and washed three times with 1×PBS. An appropriate amount of 0.25% trypsin digestion solution was added to moisten the cells, and then the trypsin solution was aspirated. The cells were placed in a cell culture incubator at 5% CO2 and 37° C. for digestion for a suitable time, and observed under a microscope. When 90% of the cells become round, the cells were moved immediately to the clean bench and complete culture medium was added to terminate digestion. Then, the cells were dislodged by pipetting up and down with a rubber-tipped dropper to single cells. The cells were counted, and the cell density was adjusted. The cells were inoculated into a suitable culture bottle or dish, added enough complete culture medium, and placed in a cell culture incubator at 5% CO2 and 37° C. for static culture.
For suspension cells in the logarithmic phase, the original culture medium was directly centrifuged at 50 g for 5 minutes, the supernatant was discarded, and the cells were washed once with PBS and centrifuged. After discarding the supernatant, the complete culture medium was added and the cells were dispersed using a rubber-tipped dropper. The cells are counted, and the cell density was adjusted. The cells were inoculated into appropriate culture bottles or culture dishes, and sufficient complete culture medium was added, and the cells were cultured in a cell culture incubator at 5% CO2 and 37° C.
3. Cell proliferation assay: cells in good state in logarithmic phase were taken and appropriate amount of the cells was inoculated into 96-well plates according to the cell passage treatment method, with each well containing 180 μL complete medium. After the cells growth was recovered and the number of cells in each well is 5000±500, a drug was added for treatment.
After drug treatment during the experimental time, MTT solution with a final concentration of 0.5 mg/mL was added to each well, and placed in a cell culture incubator at 5% CO2 and 37° C. to allow a fully reaction of MTT with cells. After 4 hours, the solution in the 96-well plate was discarded, 100 µL of DMSO was added, and shaked to dissolve the formazan precipitated at the bottom of the plate, and the absorbance value of samples was detected at a wavelength of 570 nm using a microplate reader. Calculation method of cell viability rate:
Table 4 lists some compounds that have inhibitory effects against both of bacteria and cancer cells. In the table, the inhibitory effects against cancer cells are shown: the average proliferation inhibition rate (%) against cancer cells at the dosage of 40 μM.

[1] = tested on: Staphylococcus aureus ATCC43300; assay: Resistance test of bacteria against compounds (serial induction, 21 days); conditions: period of 21 days, S. aureus ATCC43300
Description: This example provides a resistance test of bacteria against compounds, and the specific experimental method is as follows.
1. […] It was ensured that among the 6 final concentrations of the drug diluted into the wells, some were higher than the original MIC of the bacteria and some were lower than the original MIC of the bacteria.
2. Preparation of bacterial liquid: 10 mL of culture medium was taken and added to a sterilized plate using a pipette, then 100 µL of the above-mentioned passaged bacterial liquid was added, and mixed well for later use.
3. The above-mentioned diluted bacterial liquid was taken and added to a 96-well plate using a pipette, 180 μL per well, 3 wells per group, 6 groups in total. 20 μL of drug solution was added to each well (note: it is necessary to replace the pipette tip each time the drug is added), so that the final drug concentrations were […], respectively. The well with 200 μL of diluted bacterial liquid was used as the positive control well, and the well with 200 μL of culture medium was used as the negative control well.
The test object was Staphylococcus aureus (S. aureus).

[2] = ATCC43300, Table 3, read-out: MIC S. aureus ATCC 43300
[3] = ATCC25922, Table 3, read-out: MIC E. coli ATCC 25922
[4] = ATCC43300, Table 4, read-out: S. aureus ATCC 43300 MIC
[5] = ATCC25922, Table 4, read-out: E. coli ATCC 25922 MIC
[6] = average proliferation inhibition rate at the dosage of 40 μM

SMILES	MIC (S. aureus ATCC 43300; [2]) [µg/mL]	MIC (E. coli ATCC 25922; [3]) [µg/mL]	MIC (S. aureus ATCC 43300; [4]) [µg/mL]	MIC (E. coli ATCC 25922; [5]) [µg/mL]	inhibition at 40 µM (Hela; [6]) [%]	further results
COc1c(-c2ncncn2)c(F)cc2c(=O)c(C(=O)O)cn(C3CC3)c12 [Example 77]	0.1 to 1 (≈ 0.281 to 2.81 µM)	0.1 to 1 (≈ 0.281 to 2.81 µM)				
Nc1cnc(-c2cc3c(cc2F)c(=O)c(C(=O)O)cn3C2CC2)nc1 [Example 83]	0.1 to 1 (≈ 0.294 to 2.94 µM)	0.1 to 1 (≈ 0.294 to 2.94 µM)				
COc1c(-c2ccc([S+]([O-])CCO)cc2)c(F)cc2c(=O)c(C(=O)O)cn(C3CC3)c12 (stereo not shown) [Example 86]	≤ 0.1	0.1 to 1 (≈ 0.224 to 2.24 µM)	≤ 1	≤ 1	≥ 20	
O=C(O)c1cn(C2CC2)c2cc(-c3ccc4c(c3)CNS4(=O)=O)c(F)cc2c1=O [Example 107]	≤ 0.1	0.1 to 1 (≈ 0.241 to 2.41 µM)	≤ 1	≤ 1	≥ 20	
O=C(O)c1cn(C2CC2)c2cc(-c3ccc4c(c3)S(=O)(=O)NC4)c(F)cc2c1=O [Example 113]	≤ 0.1	≤ 0.1	≤ 1	≤ 1	≥ 20	
CCn1cc(C(=O)O)c(=O)c2cc(OC)c(-c3ccc(N)nc3)c(C)c21 [Example 74]	0.1 to 1 (≈ 0.283 to 2.83 µM)	0.1 to 1 (≈ 0.283 to 2.83 µM)				
CCCCCCCNS(=O)(=O)c1ccc(-c2cc3c(cc2F)c(=O)c(C(=O)O)cn3C2CC2)cn1 [Example 128]	≤ 0.1	1 to 8 (≈ 1.99 to 15.9 µM)	≤ 1	≥ 1	≥ 20	
COc1c(-c2ccc(S(N)(=O)=O)c([N+](=O)[O-])c2)c(F)cc2c(=O)c(C(=O)O)cn(C3CC3)c12 [Example 110]	≤ 0.1	≤ 0.1				
N#Cc1cc(-c2cc3c(cc2F)c(=O)c(C(=O)O)cn3C2CC2)ccc1S(=O)(=O)NCCCC(F)(F)F [Example 111]	0.1 to 1 (≈ 0.186 to 1.86 µM)	0.1 to 1 (≈ 0.186 to 1.86 µM)				
O=C(O)c1cn(C2CC2)c2c(Cl)c(-c3ccc(S(=O)(=O)NCCO)cc3)c(F)cc2c1=O [Example 89]	≤ 0.1	0.1 to 1 (≈ 0.208 to 2.08 µM)	≤ 1	≤ 1	≥ 20	
CCCCCNS(=O)(=O)c1ccc(-c2c(F)cc3c(=O)c(C(=O)O)cn(C4CC4)c3c2OC)cc1 [Example 80]	≤ 0.1	0.1 to 1 (≈ 0.199 to 1.99 µM)	≤ 1	≤ 1	≥ 50	
COc1c(-c2ccnc(CO)c2)c(F)cc2c(=O)c(C(=O)O)cn(C3CC3)c12 [Example 148]	1 to 8 (≈ 2.6 to 20.8 µM)	≤ 0.1	≥ 1	≤ 1	≥ 20	
CS(=N)(=O)c1ccc(-c2cc3c(cc2F)c(=O)c(C(=O)O)cn3C2CC2)cc1 (stereo not shown) [Example 64]	0.1 to 1 (≈ 0.25 to 2.5 µM)	0.1 to 1 (≈ 0.25 to 2.5 µM)				
COc1cc(-c2c(F)cc3c(=O)c(C(=O)O)cn(C4CC4)c3c2OC)ccc1NC(C)=O [Example 66]	0.1 to 1 (≈ 0.227 to 2.27 µM)	0.1 to 1 (≈ 0.227 to 2.27 µM)				
Nc1cc(-c2nc3c(cc2F)c(=O)c(C(=O)O)cn3C2CC2)ccn1.O=CO [Example 56]	0.1 to 1	0.1 to 1				
O=C(O)c1cn(C2CC2)c2cc(-c3ccnc(NC(=O)C(F)(F)F)c3)c(F)cc2c1=O [Example 57]	0.1 to 1 (≈ 0.23 to 2.3 µM)	0.1 to 1 (≈ 0.23 to 2.3 µM)				
CC(=O)Nc1ccc(-c2cc3c(cc2F)c(=O)c(C(=O)O)cn3C2CC2)nc1 [Example 93]						MIC (S. aureus ATCC 43300; ATCC43300, read-out: MIC S. aureus ATCC 43300): 0.1 to 1 µg/mL (≈ 0.262 to 2.62 µM); MIC (S. aureus ATCC 43300; ATCC43300, read-out: S. aureus ATCC 43300 MIC): ≤ 1 µg/mL; MIC (E. coli ATCC 25922; ATCC25922, read-out: E. coli ATCC 25922 MIC): ≤ 1 µg/mL; MIC (E. coli ATCC 25922; ATCC25922, read-out: MIC E. coli ATCC 25922): 0.1 to 1 µg/mL (≈ 0.262 to 2.62 µM); inhibition at 40 µM (Hela): ≥ 20%
CN[C@H](CC(C)C)C(=O)N[C@H]1C(=O)N[C@@H](CC(N)=O)C(=O)N[C@H]2C(=O)N[C@H]3C(=O)N[C@H](C(=O)N[C@H](C(=O)O)c4cc(O)cc(O)c4-c4cc3ccc4O)[C@H](O)c3ccc(c(Cl)c3)Oc3cc2cc(c3O[C@@H]2O[C@H](CO)[C@@H](O)[C@H](O)[C@H]2O[C@H]2C[C@](C)(N)[C@H](O)[C@H](C)O2)Oc2ccc(cc2Cl)[C@H]1O [vancomycin]						MIC at the end of the resistance experiment [1]: 4 µg/mL
Nc1cnc(-c2cc3c(cc2F)c(=O)c(C(=O)O)cn3C2CC2)cc1F [Example 91]	0.1 to 1 (≈ 0.28 to 2.8 µM)	0.1 to 1 (≈ 0.28 to 2.8 µM)				
C#CCNS(=O)(=O)c1ccc(-c2cc3c(cc2F)c(=O)c(C(=O)O)cn3C2CC2)cc1[N+](=O)[O-] [Example 116]	0.1 to 1 (≈ 0.206 to 2.06 µM)	0.1 to 1 (≈ 0.206 to 2.06 µM)				
O=C(CCl)Nc1cnc(-c2cc3c(cc2F)c(=O)c(C(=O)O)cn3C2CC2)cn1 [Example 96]	≤ 0.1	≤ 0.1				
Nc1cc(-c2c(F)cc3c(=O)c(C(=O)O)cn(C4CC4)c3c2Cl)ccn1 [Example 151]	≤ 0.1	≤ 0.1	≤ 1	≤ 1	≥ 20	
